Assay [1] concerns Human immunodeficiency virus 1. As to the kind of experiment: Antiviral activity against HIV1 NL4-3 harboring gp41 D36G mutant infected in human HeLa cells expressing CD4-LTR-beta-gal assessed as inhibition of viral replication after 48 hrs by MAGI assay. The format is functional, organism-based.
Assay [2] relates to Human immunodeficiency virus 1. As to the kind of experiment: Thermal stability of HIV1 envelope glycoprotein gp41 His-tagged N-terminal heptad repeat N36-drug complex assessed as thermal unfolding transition state by measuring molar ellipticity at 4 to 90 degC by circular dichroic spectra analysis.
Assay [3] concerns Human immunodeficiency virus 1. As to the kind of experiment: Binding affinity to HIV1 His-tagged N-terminal heptad repeat of envelope glycoprotein gp41 assessed as recovery of N36-drug complex after 2 hrs by LC-MS analysis. Further details: concentration or dose not given beside the values.
The subject of assay [4] is Human immunodeficiency virus 1. Description: Binding affinity to HIV1 His-tagged N-terminal heptad repeat of envelope glycoprotein gp41 assessed as recovery of N54-drug complex after 2 hrs by LC-MS analysis. Further details: concentration or dose not given beside the values.
In assay [5] the test system is Human immunodeficiency virus 1. As to the kind of experiment: Thermal stability of HIV1 envelope glycoprotein gp41 His-tagged N-terminal heptad repeat N54-drug complex assessed as thermal unfolding transition state by measuring molar ellipticity at 4 to 90 degC by circular dichroic spectra analysis.

Residues, ends and D or L forms follow the SMILES beside them.

Here are results for 7 compounds from ChEMBL document CHEMBL3390848, “Affinity selection and sequence-activity relationships of HIV-1 membrane fusion inhibitors directed at the drug-resistant variants” (Medchemcomm, 2010).

For orientation: EC50 means the midpoint of the concentration-response curve. As usually defined, the Tm is the temperature at which the thermal transition is half complete.

On to `CC[C@H](C)[C@H](NC(=O)[C@H](CCC(=O)O)NC(=O)[C@H](CCC(=O)O)NC(=O)[C@H](CO)NC(=O)[C@H](CCCCN)NC(=O)[C@H](CCCCN)NC(=O)[C@@H](NC(=O)[C@H](CC(C)C)NC(=O)[C@H](CCC(=O)O)NC(=O)[C@H](CCC(=O)O)NC(=O)[C@@H](NC(=O)[C@H](CCCCN)NC(=O)[C@H](CCCCN)NC(=O)[C@@H](NC(=O)[C@H](Cc1ccc(O)cc1)NC(=O)[C@H](CCC(=O)O)NC(=O)[C@H](CCC(=O)O)NC(=O)[C@@H](NC(=O)[C@H](CCCCN)NC(=O)[C@H](CCCCN)NC(=O)[C@H](CC(=O)O)NC(=O)[C@H](Cc1c[nH]c2ccccc12)NC(=O)[C@H](CCC(=O)O)NC(=O)[C@H](CCC(=O)O)NC(=O)[C@H](Cc1c[nH]c2ccccc12)NC(C)=O)[C@@H](C)CC)[C@@H](C)O)[C@@H](C)CC)[C@@H](C)CC)C(=O)N[C@@H](CCC(N)=O)C(=O)N[C@@H](CCCCN)C(=O)N[C@@H](CCCCN)C(=O)N[C@@H](CC(N)=O)C(=O)N[C@@H](CCC(=O)O)C(=O)N[C@@H](CCC(=O)O)C(=O)N[C@@H](CCC(=O)O)C(=O)N[C@@H](CC(C)C)C(=O)N[C@@H](CCCCN)C(=O)N[C@@H](CCCCN)C(N)=O` (Ac-WEEWDKKIEEYTKKIEELIKKSEEIQKKNEEELKK-NH2), for which the EC50 in assay [1] was determined as 2.9 nM. Moreover, the Tm in assay [2] was 79.7 °C. Also, in assay [3], the Activity stood at 8.2%.
For the compound `CC[C@H](C)[C@H](NC(=O)[C@H](CC(C)C)NC(=O)[C@H](CCC(=O)O)NC(=O)[C@H](CCC(=O)O)NC(=O)[C@@H](NC(=O)[C@H](CCCCN)NC(=O)[C@H](CCCCN)NC(=O)[C@@H](NC(=O)[C@H](Cc1ccc(O)cc1)NC(=O)[C@H](CCC(=O)O)NC(=O)[C@H](CCC(=O)O)NC(=O)[C@@H](NC(=O)[C@H](CCCCN)NC(=O)[C@H](CCCCN)NC(=O)[C@H](CC(=O)O)NC(=O)[C@H](Cc1c[nH]c2ccccc12)NC(=O)[C@H](CCC(=O)O)NC(=O)[C@H](CCC(=O)O)NC(=O)[C@H](Cc1c[nH]c2ccccc12)NC(C)=O)[C@@H](C)CC)[C@@H](C)O)[C@@H](C)CC)C(=O)N[C@@H](CCCCN)C(=O)N[C@@H](CCCCN)C(=O)N[C@@H](CO)C(=O)N[C@@H](CCC(=O)O)C(=O)N[C@@H](CCC(=O)O)C(=O)N[C@@H](CC(=O)O)C(=O)N[C@@H](CCC(N)=O)C(=O)N[C@@H](CCCCN)C(=O)N[C@@H](CCCCN)C(=O)N[C@@H](CC(N)=O)C(=O)N[C@@H](CCC(=O)O)C(=O)N[C@@H](CCC(=O)O)C(=O)N[C@@H](CCC(=O)O)C(=O)N[C@@H](CC(C)C)C(=O)N[C@@H](CCCCN)C(=O)N[C@@H](CCCCN)C(N)=O` (Ac-WEEWDKKIEEYTKKIEELIKKSEEDQKKNEEELKK-NH2), in assay [1], the EC50 came out at 2.9 nM. Besides, in assay [2], the Tm was determined as 75.1 °C. For the same compound, the Activity in assay [3] turned out to be 4.5%.
Regarding `CC[C@H](C)[C@H](NC(=O)[C@H](CC(C)C)NC(=O)[C@H](CCC(=O)O)NC(=O)[C@H](CCC(=O)O)NC(=O)[C@@H](NC(=O)[C@H](CC(C)C)NC(=O)[C@H](CO)NC(=O)[C@@H](NC(=O)[C@H](Cc1ccc(O)cc1)NC(C)=O)[C@@H](C)O)[C@@H](C)CC)C(=O)N[C@@H](CCCCN)C(=O)N[C@@H](CCCCN)C(=O)N[C@@H](CC(N)=O)C(=O)N[C@@H](CCC(=O)O)C(=O)N[C@@H](CCC(=O)O)C(=O)N[C@@H](CCC(N)=O)C(=O)N[C@@H](CCC(N)=O)C(=O)N[C@@H](CCCCN)C(=O)N[C@@H](CCCCN)C(=O)N[C@@H](CC(N)=O)C(=O)N[C@@H](CCC(=O)O)C(=O)N[C@@H](CCC(=O)O)C(=O)N[C@@H](CCC(=O)O)C(=O)N[C@@H](CC(C)C)C(=O)N[C@@H](CCCCN)C(=O)N[C@@H](CCCCN)C(=O)N[C@@H](CC(C)C)C(=O)N[C@@H](CCC(=O)O)C(=O)N[C@@H](CCC(=O)O)C(=O)N[C@@H](Cc1c[nH]c2ccccc12)C(=O)N[C@@H](C)C(=O)N[C@@H](CCCCN)C(=O)N[C@@H](CCCCN)C(=O)N[C@@H](Cc1c[nH]c2ccccc12)C(=O)N[C@@H](CC(N)=O)C(=O)N[C@@H](Cc1c[nH]c2ccccc12)C(=O)N[C@@H](Cc1ccccc1)C(N)=O` (Ac-YTSLIEELIKKNEEQQKKNEEELKKLEEWAKKWNWF-NH2), in assay [1], the EC50 was 4.8 nM. Besides, the Activity in assay [4] amounted to 3.5%. In addition, the Tm in assay [5] came to 65.7 °C.
Consider `CC[C@H](C)[C@H](NC(=O)[C@H](CC(C)C)NC(=O)[C@H](CCC(=O)O)NC(=O)[C@H](CCC(=O)O)NC(=O)[C@@H](NC(=O)[C@H](CC(C)C)NC(=O)[C@H](CO)NC(=O)[C@@H](NC(=O)[C@H](Cc1ccc(O)cc1)NC(C)=O)[C@@H](C)O)[C@@H](C)CC)C(=O)N[C@@H](CCCCN)C(=O)N[C@@H](CCCCN)C(=O)N[C@@H](CO)C(=O)N[C@@H](CCC(=O)O)C(=O)N[C@@H](CCC(=O)O)C(=O)N[C@@H](CC(=O)O)C(=O)N[C@@H](CCC(N)=O)C(=O)N[C@@H](CCCCN)C(=O)N[C@@H](CCCCN)C(=O)N[C@@H](CC(N)=O)C(=O)N[C@@H](CCC(=O)O)C(=O)N[C@@H](CCC(=O)O)C(=O)N[C@@H](CCC(=O)O)C(=O)N[C@@H](CC(C)C)C(=O)N[C@@H](CCCCN)C(=O)N[C@@H](CCCCN)C(=O)N[C@@H](CC(C)C)C(=O)N[C@@H](CCC(=O)O)C(=O)N[C@@H](CCC(=O)O)C(=O)N[C@@H](Cc1c[nH]c2ccccc12)C(=O)N[C@@H](C)C(=O)N[C@@H](CCCCN)C(=O)N[C@@H](CCCCN)C(=O)N[C@@H](Cc1c[nH]c2ccccc12)C(=O)N[C@@H](CC(N)=O)C(=O)N[C@@H](Cc1c[nH]c2ccccc12)C(=O)N[C@@H](Cc1ccccc1)C(N)=O` (Ac-YTSLIEELIKKSEEDQKKNEEELKKLEEWAKKWNWF-NH2), for which, in assay [1], the EC50 turned out to be 3.5 nM. The Activity in assay [4] turned out to be 8.2%. The Tm in assay [5] was found to be 71.4 °C.
Take `CC[C@H](C)[C@H](NC(=O)[C@H](CC(C)C)NC(=O)[C@H](CCC(=O)O)NC(=O)[C@H](CCC(=O)O)NC(=O)[C@@H](NC(=O)[C@H](CC(C)C)NC(=O)[C@H](CO)NC(=O)[C@@H](NC(=O)[C@H](Cc1ccc(O)cc1)NC(C)=O)[C@@H](C)O)[C@@H](C)CC)C(=O)N[C@@H](CCCCN)C(=O)N[C@@H](CCCCN)C(=O)NCC(=O)N[C@@H](CCC(=O)O)C(=O)N[C@@H](CCC(=O)O)C(=O)N[C@@H](CCC(N)=O)C(=O)N[C@@H](CCC(N)=O)C(=O)N[C@@H](CCCCN)C(=O)N[C@@H](CCCCN)C(=O)N[C@@H](CC(N)=O)C(=O)N[C@@H](CCC(=O)O)C(=O)N[C@@H](CCC(=O)O)C(=O)N[C@@H](CCC(=O)O)C(=O)N[C@@H](CC(C)C)C(=O)N[C@@H](CCCCN)C(=O)N[C@@H](CCCCN)C(=O)N[C@@H](CC(C)C)C(=O)N[C@@H](CCC(=O)O)C(=O)N[C@@H](CCC(=O)O)C(=O)N[C@@H](Cc1c[nH]c2ccccc12)C(=O)N[C@@H](C)C(=O)N[C@@H](CCCCN)C(=O)N[C@@H](CCCCN)C(=O)N[C@@H](Cc1c[nH]c2ccccc12)C(=O)N[C@@H](CC(N)=O)C(=O)N[C@@H](Cc1c[nH]c2ccccc12)C(=O)N[C@@H](Cc1ccccc1)C(N)=O` (Ac-YTSLIEELIKKGEEQQKKNEEELKKLEEWAKKWNWF-NH2): the EC50 in assay [1] was 0.4 nM. Also, the Activity in assay [4] worked out at 9.6%. Besides, the Tm in assay [5] was 76.7 °C.
Consider `CC[C@H](C)[C@H](NC(=O)[C@H](CC(C)C)NC(=O)[C@H](CCC(=O)O)NC(=O)[C@H](CCC(=O)O)NC(=O)[C@@H](NC(=O)[C@H](CC(C)C)NC(=O)[C@H](CO)NC(=O)[C@@H](NC(=O)[C@H](Cc1ccc(O)cc1)NC(C)=O)[C@@H](C)O)[C@@H](C)CC)C(=O)N[C@@H](CCCCN)C(=O)N[C@@H](CCCCN)C(=O)N[C@@H](Cc1cnc[nH]1)C(=O)N[C@@H](CCC(=O)O)C(=O)N[C@@H](CCC(=O)O)C(=O)N[C@@H](CCC(N)=O)C(=O)N[C@@H](CCC(N)=O)C(=O)N[C@@H](CCCCN)C(=O)N[C@@H](CCCCN)C(=O)N[C@@H](CC(N)=O)C(=O)N[C@@H](CCC(=O)O)C(=O)N[C@@H](CCC(=O)O)C(=O)N[C@@H](CCC(=O)O)C(=O)N[C@@H](CC(C)C)C(=O)N[C@@H](CCCCN)C(=O)N[C@@H](CCCCN)C(=O)N[C@@H](CC(C)C)C(=O)N[C@@H](CCC(=O)O)C(=O)N[C@@H](CCC(=O)O)C(=O)N[C@@H](Cc1c[nH]c2ccccc12)C(=O)N[C@@H](C)C(=O)N[C@@H](CCCCN)C(=O)N[C@@H](CCCCN)C(=O)N[C@@H](Cc1c[nH]c2ccccc12)C(=O)N[C@@H](CC(N)=O)C(=O)N[C@@H](Cc1c[nH]c2ccccc12)C(=O)N[C@@H](Cc1ccccc1)C(N)=O` (Ac-YTSLIEELIKKHEEQQKKNEEELKKLEEWAKKWNWF-NH2), for which the EC50 in assay [1] stood at 35 nM. Moreover, in assay [4], the Activity was determined as 3.2%. The Tm in assay [5] turned out to be 58.5 °C.
As for `CC[C@H](C)[C@H](NC(=O)[C@H](CC(C)C)NC(=O)[C@H](CCC(=O)O)NC(=O)[C@H](CCC(=O)O)NC(=O)[C@@H](NC(=O)[C@H](CC(C)C)NC(=O)[C@H](CO)NC(=O)[C@@H](NC(=O)[C@H](Cc1ccc(O)cc1)NC(C)=O)[C@@H](C)O)[C@@H](C)CC)C(=O)N[C@@H](CCCCN)C(=O)N[C@@H](CCCCN)C(=O)N[C@H](C(=O)N[C@@H](CCC(=O)O)C(=O)N[C@@H](CCC(=O)O)C(=O)N[C@@H](CCC(N)=O)C(=O)N[C@@H](CCC(N)=O)C(=O)N[C@@H](CCCCN)C(=O)N[C@@H](CCCCN)C(=O)N[C@@H](CC(N)=O)C(=O)N[C@@H](CCC(=O)O)C(=O)N[C@@H](CCC(=O)O)C(=O)N[C@@H](CCC(=O)O)C(=O)N[C@@H](CC(C)C)C(=O)N[C@@H](CCCCN)C(=O)N[C@@H](CCCCN)C(=O)N[C@@H](CC(C)C)C(=O)N[C@@H](CCC(=O)O)C(=O)N[C@@H](CCC(=O)O)C(=O)N[C@@H](Cc1c[nH]c2ccccc12)C(=O)N[C@@H](C)C(=O)N[C@@H](CCCCN)C(=O)N[C@@H](CCCCN)C(=O)N[C@@H](Cc1c[nH]c2ccccc12)C(=O)N[C@@H](CC(N)=O)C(=O)N[C@@H](Cc1c[nH]c2ccccc12)C(=O)N[C@@H](Cc1ccccc1)C(N)=O)[C@@H](C)CC` (Ac-YTSLIEELIKKIEEQQKKNEEELKKLEEWAKKWNWF-NH2), the EC50 in assay [1] worked out at 0.4 nM. Further, in assay [4], the Activity is 10.4%. The Tm in assay [5] amounted to 79.7 °C.
